The compounds below were run on Phosphorylation of STAT6 in human PBMC (CD19+ B cells) (assay: Phosphorylated STAT6 (pSTAT6) flow cytometry assay in human PBMC, IL-4 stimulated). Conditions: compound 1 hour, 1 ng/ml IL-4 for 15 minutes, read-out: STAT6 IL4 pSTAT6 assay in PBMC: Average IC50.
Type: cell-based
Method: Example 2. Phosphorylated STAT6 (pSTAT6) Flow Cytometry Assay in Human PBMC
Phosphorylation of STAT6 in human PBMC was quantitatively measured using flow cytometry technology. Human PBMC were seeded in 96-well plates with a density of 0.3 to 0.5 million cells per well in 100 μl fresh media. Compounds were then added to the assay plates with a final top concentration of up to 30 μM in a 1:3 dilution series with total of 9 doses. The assay plates were incubated for 1 hour at 37° C. under 5% CO2. The cells were then stimulated with 1 ng/ml of IL-4 (R&D Systems, Cat #6507-IL) for 15 minutes, followed by fixation for 30 minutes at 4° C. Cells were spun down at 350 g for 5 minutes. The supernatant was removed and cells were washed once with FACS buffer. Cells were permeabilized with 90% MeOH/H2O for 30 minutes at 4° C., followed by one wash with FACS buffer. Non-specific binding were blocked with human Fc for 1 hour at 4 C, followed by one wash with FACS buffer. AF488 conjugated pSTAT6 antibody (BD Biosciences, Cat #612600, 1:100 dilution) and PE conjugated CD19 antibody (BD Biosciences, Cat #341103, 1:50 dilution) diluted in 100 μl FACS buffer was added to each well with overnight incubation at 4° C. Cells were then washed once with FACS buffer and resuspended in 200 μl of FACS buffer for flow cytometry to quantify pSTAT6 in CD19+ B cells. The data was analyzed by GraphPad Prism and the dose dependent pSTAT6 inhibition was fit using the four-parameter inhibitor vs. response nonlinear regression.
`CN(C)C(=O)c1cc2cc(C3=CCCN(C(=O)CCn4ccnn4)C3)cnc2[nH]1` [Example I-222] was tested, and the IC50 was 10 to 100 µM. For `COC(=O)c1ccc(CCC(=O)N2CCC=C(c3ccc4cc(C(=O)N(C)C)[nH]c4c3)C2)[nH]1` [Example I-68], the IC50 was 10 to 100 µM. With `CN(C)C(=O)c1cc2ccc(C3=CCCN(C(=O)c4c(F)cccc4C(=O)O)C3)cc2[nH]1` [Example I-61] the IC50 was > 100 µM. With `CN(C)C(=O)c1cc2ccc(C3=CCCN(C(=O)Cc4cccnc4O)C3)cc2[nH]1` [Example I-257] the IC50 was > 100 µM. `Cc1cccc(C)c1N1CC(C(=O)N2CCC=C(c3ccc4cc(C(=O)N(C)C)[nH]c4c3)C2)CC1=O` (stereo not shown) [Example I-97] was tested, and the IC50 was 10 to 100 µM. `CN(C)C(=O)c1cc2ccc(C3=CCCN(C(=O)[C@@H](Cn4ccnn4)c4cccc(O)c4)C3)cc2[nH]1` [Example I-122] was tested, and the IC50 was > 100 µM. `CNC1(C(=O)N2CCC=C(c3ccc4oc(C(=O)N(C)C)cc4c3)C2)CCc2ccccc2C1` (stereo not shown) [Example I-5] showed an IC50 of 10 to 100 µM. In the case of `CN(C)C(=O)c1cc2ccc(C3=CCCN(C(=O)c4cccnc4SCc4ccccc4)C3)cc2[nH]1` [Example I-95], the IC50 is reported as > 100 µM. With `CNc1ccc(-c2cc(C3=CCCN(C(=O)CCn4ccnn4)C3)cc3[nH]c(C(=O)N(C)C)cc23)nc1` [Example I-116] the IC50 was 0.1 to 1 µM. With `O=C(CCn1ccnn1)N1CCC=C(c2ccc3cc(C(=O)N4CCCCC4)[nH]c3c2)C1` [Example I-123] the IC50 was 10 to 100 µM. With `CN(C)C(=O)c1cc2ccc(C3=CCCN(C(=O)C4(O)CCCC4)C3)cc2[nH]1` [Example I-32] the IC50 was 10 to 100 µM. In the case of `COC(=O)C1CCC(c2ccc3oc(C(=O)N(C)C)cc3c2)CN1C(=O)CCn1ccnn1` (stereo not shown) [Example I-149], the IC50 is reported as > 100 µM. For `CN(C)C(=O)c1cc2ccc(C3=CCCN(C(=O)Cn4cncn4)C3)cc2[nH]1` [Example I-36], the IC50 was 10 to 100 µM. For `COC(=O)C1CCC(c2ccc3oc(C(=O)N(C)C)cc3c2)CN1C(=O)CCn1ccnn1` (stereo not shown) [Example I-150], the IC50 was > 100 µM. With `CN(C)C(=O)c1cc2ccc(C3=CCCN(C(=O)c4cc(=O)c(OCc5ccccc5)c[nH]4)C3)cc2[nH]1` [Example I-110] the IC50 was > 100 µM. For `CN(C)C(=O)c1cc2cc(C3CCC(CO)N(C(=O)CCn4ccnn4)C3)ccc2o1` (stereo not shown) [Example I-155], the IC50 was > 100 µM. In the case of `CN(C)C(=O)c1cc2cc(C3=CCCN(C(=O)[C@H](N)Cn4ccnn4)C3)ccc2o1` (single isomer, unassigned) [Example I-174], the IC50 is reported as > 100 µM. Work on `CN(C)C(=O)c1cc2ccc(C3=CCCN(C(=O)c4ccccc4-c4ccccc4C(=O)O)C3)cc2[nH]1` [Example I-105] yielded an IC50 of 10 to 100 µM. For `CN(C)C(=O)c1cc2cc(C3CCCN(C(=O)CCn4ccnn4)C3)ccc2o1` (stereo not shown) [Example I-305], the IC50 was > 100 µM. In the case of `CC(=O)NC(Cc1cccc(F)c1)C(=O)N1CCC=C(c2ccc3cc(C(=O)N(C)C)[nH]c3c2)C1` (stereo not shown) [Example I-82], the IC50 is reported as 10 to 100 µM. For `COC(=O)[C@H]1CC[C@@H](c2ccc3oc(C(=O)N(C)C)cc3c2)CN1C(=O)CCn1ccnn1` (single isomer, unassigned) [Example I-151], the IC50 was > 100 µM. For `CN(C)C(=O)c1cc2cc(C3=CCCN(C(=O)Cc4ccccc4)C3)ccc2o1` [Example I-283], the IC50 was > 100 µM. With `CN(C)C(=O)c1cc2ccc(C3=CCCN(C(=O)c4ccc(-c5ccc(Cl)cc5)cc4)C3)cc2[nH]1` [Example I-83] the IC50 was 10 to 100 µM. With `CC(=O)N1CCc2ccccc2[C@@H]1C(=O)N1CCC=C(c2ccc3oc(C(=O)N(C)C)cc3c2)C1` (single isomer, unassigned) [Example I-177] the IC50 was > 100 µM. With `CN(C)C(=O)c1cc2cc(C3CCC(CO)N(C(=O)CCn4ccnn4)C3)ccc2o1` (stereo not shown) [Example I-154] the IC50 was > 100 µM. Compound `CN(C)C(=O)c1cc2ccc(C3=CCCN(C(=O)c4[nH]nc5c4CS(=O)(=O)C5)C3)cc2[nH]1` [Example I-57] has an IC50 of 10 to 100 µM. With `CN(C)C(=O)c1cc2cc(C3=CCCN(C(=O)Cc4nc5ccccc5s4)C3)ccc2o1` [Example I-221] the IC50 was > 100 µM. With `Cc1cn(CCC(=O)N2CCC=C(c3ccc4cc(C(=O)N(C)C)[nH]c4c3)C2)nn1` [Example I-319] the IC50 was > 100 µM. `CN(C)C(=O)c1cc2ccc(C3=CCCN(C(=O)CN4C(=O)COc5ccccc54)C3)cc2[nH]1` [Example I-79] showed an IC50 of 10 to 100 µM. `CN(C)C(=O)c1cc2cc(C3=CCCN(C(=O)[C@H]4Cc5ccc(O)cc5CN4)C3)ccc2o1` [Example I-239] was tested, and the IC50 was > 100 µM. In the case of `CN(C)C(=O)c1cc2cc(C3=CCCN(C(=O)Cc4nc5ccccc5[nH]4)C3)ccc2o1` [Example I-245], the IC50 is reported as > 100 µM. With `CC(=O)N1CCC(c2cc(C3=CCCN(C(=O)CCn4ccnn4)C3)cc3cc(C(=O)N(C)C)oc23)CC1` [Example I-190] the IC50 was 10 to 100 µM. `CN(C)C(=O)c1cc2ccc(C3=CCCN(C(=O)C(CO)c4ccccc4)C3)cc2[nH]1` (stereo not shown) [Example I-159] was tested, and the IC50 was > 100 µM. `CN(C)C(=O)c1cc2ccc(C3=CCCN(C(=O)C4CC(=O)N4)C3)cc2[nH]1` (stereo not shown) [Example I-30] showed an IC50 of 10 to 100 µM. `CN(C)C(=O)c1cc2cc(C3=CCCN(C(=O)CCc4nncc5ccccc45)C3)ccc2o1` [Example I-168] was tested, and the IC50 was > 100 µM. In the case of `CN(C)C(=O)c1cc2ccc(C3=CCCN(C(=O)C4(c5ccc(Cl)cc5)CC(O)C4)C3)cc2[nH]1` (stereo not shown) [Example I-78], the IC50 is reported as > 100 µM. `CN(C)C(=O)c1cc2ccc(C3=CCCN(C(=O)[C@@H]4C[C@H](c5ccccc5)CN4)C3)cc2[nH]1` [Example I-76] was tested, and the IC50 was > 100 µM. In the case of `CCN[C@H](Cn1ccnn1)C(=O)N1CCC=C(c2ccc3oc(C(=O)N(C)C)cc3c2)C1` [Example I-169], the IC50 is reported as > 100 µM. With `CN(C)C(=O)c1cc2cc(C3=CCCN(C(=O)C4Cc5ccccc5CN4C=O)C3)ccc2[nH]1` (stereo not shown) [Example I-201] the IC50 was > 100 µM. For `CN(C)C(=O)c1cc2cc(C3=CCCN(C(=O)CCc4ccc5c(c4)OCO5)C3)ccc2o1` [Example I-282], the IC50 was > 100 µM. With `CN(C)C(=O)c1cc2cc(C3=CCCN(C(=O)Cc4coc5ccccc45)C3)ccc2o1` [Example I-271] the IC50 was > 100 µM. Compound `CN(C)C(=O)c1cc2ccc(C3=CCCN(C(=O)C4COCC(=O)N4Cc4ccccc4)C3)cc2[nH]1` (stereo not shown) [Example I-93] has an IC50 of 10 to 100 µM. In the case of `CN(C)C(=O)c1cc2ccc(C3=CCCN(C(=O)C4(O)CC4)C3)cc2[nH]1` [Example I-27], the IC50 is reported as > 100 µM. For `CN(C)C(=O)c1cc2ccc(C3=CCCN(C(=O)c4ccccc4C(=O)c4ccc(F)cc4)C3)cc2[nH]1` [Example I-108], the IC50 was > 100 µM. Work on `CN(C)C(=O)c1cc2ccc(C3=CCCN(C(=O)C4CC4F)C3)cc2[nH]1` (stereo not shown) [Example I-322] yielded an IC50 of 10 to 100 µM. With `CN(C)C(=O)c1cc2cc(C3=CCCN(C(=O)C4Cc5c(cccc5C5CCNCC5)CN4C=O)C3)ccc2o1` (stereo not shown) [Example I-181] the IC50 was > 100 µM. `CN(C)C(=O)c1cc2ccc(C3=CCCN(C(=O)c4c[nH]nc4I)C3)cc2[nH]1` [Example I-34] gave an IC50 of 10 to 100 µM. `CN(C)C(=O)c1cc2ccc(C3=CCCN(C(=O)C45CC(C(F)(F)F)(C4)C5)C3)cc2[nH]1` [Example I-55] was tested, and the IC50 was 10 to 100 µM. With `CN(C)C(=O)c1cc2cc(C3=CCCN(C(=O)CCn4ccnn4)C3)cc(-c3ccc(O)cc3)c2o1` [Example I-205] the IC50 was 0.1 to 1 µM. `CN(C)C(=O)c1cc2ccc(C3=CCCN(C(=O)CN4CCOC4=O)C3)cc2[nH]1` [Example I-42] gave an IC50 of 10 to 100 µM. In the case of `CN(C)C(=O)c1cc2ccc(C3=CCCN(C(=O)CCCn4c(=O)[nH]c5ccccc54)C3)cc2[nH]1` [Example I-85], the IC50 is reported as > 100 µM. `CN(C)C(=O)c1cc2cc(C3=CCCN(C(=O)CCc4cccc5ccccc45)C3)ccc2o1` [Example I-291] was tested, and the IC50 was > 100 µM. `O=C(CCn1ccnn1)N1CCC=C(c2ccc3cc(-c4ccccn4)[nH]c3c2)C1` [Example I-119] was tested, and the IC50 was > 100 µM. `O=C(NCCO)c1cc2cc(C3=CCCN(C(=O)CCn4ccnn4)C3)ccc2o1` [Example I-307] was tested, and the IC50 was > 100 µM. In the case of `CN(C)C(=O)c1cc2cc(C3=CCCN(C(=O)CCc4c[nH]c5ccccc45)C3)ccc2o1` [Example I-300], the IC50 is reported as > 100 µM. For `CN(C)C(=O)c1cc2ccc(C3=CCCN(C(=O)C4CCN(c5ncccc5C(=O)O)CC4)C3)cc2[nH]1` [Example I-109], the IC50 was 10 to 100 µM. In the case of `CN(C)C(=O)c1cc2ccc(C3=CCCN(C(=O)CCc4ccc(C#N)cc4)C3)cc2[nH]1` [Example I-162], the IC50 is reported as > 100 µM. In the case of `CN(C)C(=O)c1cc2ccc(C3=CCCN(C(=O)[C@@H]4CCCN4C(=O)c4ccc(F)cc4)C3)cc2[nH]1` [Example I-99], the IC50 is reported as > 100 µM. In the case of `CN(C)C(=O)c1cc2cc(C3=CCCN(C(=O)Cc4ccc5nccnc5c4)C3)ccc2o1` [Example I-297], the IC50 is reported as > 100 µM. `CN(C)C(=O)c1cc2cc(C3=CCCN(C(=O)[C@@H](N)Cn4ccnn4)C3)ccc2o1` (single isomer, unassigned) [Example I-173] was tested, and the IC50 was > 100 µM. In the case of `CN(C)C(=O)c1cc2cc(C3=CCCN(C(=O)Cc4ccc5c(c4)CN(C(=O)OC(C)(C)C)CC5)C3)ccc2o1` [Example I-259], the IC50 is reported as > 100 µM. For `CN(C)C(=O)c1cc2cc(C3=CCCN(C(=O)Cn4ccnc4)C3)ccc2o1` [Example I-311], the IC50 was > 100 µM. For `CN(C)C(=O)c1cc2cc(C3=CCCN(C(=O)Cn4cccn4)C3)ccc2o1` [Example I-261], the IC50 was > 100 µM. For `CC(=O)c1cc(C(=O)N2CCC=C(c3ccc4cc(C(=O)N(C)C)[nH]c4c3)C2)n[nH]1` [Example I-49], the IC50 was 10 to 100 µM.
